The values below come from ChEMBL document CHEMBL3124787, “Discovery of novel bis-oxazolidinone compounds as potential potent and selective antitubercular agents” (Bioorg Med Chem Lett, 2014).

The MIC99 is the lowest concentration that inhibits either 99% of growth or 99% of the strains tested, depending on the study. Broadly, the solubility is the dissolved amount per volume that the medium holds. As a reminder, the logP is a log measure of how a compound divides between an organic and an aqueous phase. The low end stands for a more hydrophilic compound, the high end for a more lipophilic compound. As a reminder, the MIC is the lowest concentration that inhibits growth of the organism.

In brackets after ≈: the same amount, converted by molar mass.

In one data set the test system is Escherichia coli. Description: Antibacterial activity against Escherichia coli ATCC 25922 assessed as growth inhibition after 18 hrs by broth microdilution method. Type of data set: functional. Conditions: ATCC 25922, 18 h.
In data set [1] the test system is Staphylococcus aureus. Put plainly: Antibacterial activity against methicillin-susceptible Staphylococcus aureus CMCC 26003 assessed as growth inhibition after 18 hrs by broth microdilution method. Type of data set: functional. The following applies: CMCC 26003, 18 h. (Dilution methods test growth across graded concentrations, often in twofold steps.)
Data set [2] can be described thus: Aqueous solubility of the compound by HPLC analysis. Type of data set: physicochemical.
For data set [3], the system named is Staphylococcus aureus. Description: Antibacterial activity against methicillin-resistant Staphylococcus aureus ATCC 33591 assessed as growth inhibition after 18 hrs by broth microdilution method. Type of data set: functional. The following applies: ATCC 33591, 18 h.
The test system of data set [4] is Staphylococcus aureus. Description: Antibacterial activity against methicillin-susceptible Staphylococcus aureus ATCC 29213 assessed as growth inhibition after 18 hrs by broth microdilution method. Type of data set: functional. Conditions: ATCC 29213, 18 h.
Data set [5] has as its system Staphylococcus aureus. Description: Antibacterial activity against methicillin-resistant Staphylococcus aureus ATCC 43300 assessed as growth inhibition after 18 hrs by broth microdilution method. Type of data set: functional. Conditions: ATCC 43300, 18 h.
Data set [6] is described as follows: Lipophilicity, log P of the compound by HPLC analysis. Type of data set: physicochemical.
In another data set the test system is Pseudomonas aeruginosa. Description: Antibacterial activity against Pseudomonas aeruginosa ATCC 27853 assessed as growth inhibition after 18 hrs by broth microdilution method. Type of data set: functional. The following applies: ATCC 27853, 18 h.
Data set [7] has as its system Mycolicibacterium smegmatis. Description: Antibacterial activity against Mycobacterium smegmatis assessed as growth inhibition after 18 hrs by broth microdilution method. Type of data set: functional.
Data set [8] deals with Staphylococcus aureus. Description: Antibacterial activity against methicillin-susceptible Staphylococcus aureus ATCC 25923 assessed as growth inhibition after 18 hrs by broth microdilution method. Type of data set: functional. The following applies: ATCC 25923, 18 h.
For data set [9], the system named is Staphylococcus aureus. Description: Antibacterial activity against methicillin-susceptible Staphylococcus aureus ATCC 6538 assessed as growth inhibition after 18 hrs by broth microdilution method. Type of data set: functional. The following applies: ATCC 6538, 18 h.
Data set [10] deals with Mycobacterium tuberculosis. Put plainly: Antitubercular activity against Mycobacterium tuberculosis H37RV ATCC 27294 assessed as growth inhibition after 3 to 11 days by microdilution method. Type of data set: functional.

Turning to `CC(=O)NC[C@H]1CN(c2ccc(OC[C@H](O)CNc3ccccc3)c(F)c2)C(=O)O1`, the MIC99 in the data set with Escherichia coli is more than 32 µg/mL; in the data set with Staphylococcus aureus [1] it was 8 µg/mL (≈ 19.2 µM); with Staphylococcus aureus [3], 8 µg/mL (≈ 19.2 µM); with Staphylococcus aureus [4], 8 µg/mL (≈ 19.2 µM); in the data set with Staphylococcus aureus [5] it was 8 µg/mL (≈ 19.2 µM); with Pseudomonas aeruginosa, more than 32 µg/mL. In addition, the MIC99 is more than 64 µg/mL in data set [7], 8 µg/mL (≈ 19.2 µM) in the data set with Staphylococcus aureus [8] and 4 µg/mL (≈ 9.58 µM) in the data set on Staphylococcus aureus [9]. This molecule had a solubility in data set [2] of 0.296 mM (≈ 124 µg/mL). Besides, the logP in [6] came to 0.59.
As to `CC(=O)NC[C@H]1CN(c2ccc(OC[C@@H](O)CNc3ccc(C#N)cc3)c(F)c2)C(=O)O1`, the MIC99 in the data set with Escherichia coli was more than 32 µg/mL; in the data set with Staphylococcus aureus [1], 8 µg/mL (≈ 18.1 µM); in the data set on Staphylococcus aureus [3], 16 µg/mL (≈ 36.2 µM); in the data set on Staphylococcus aureus [4], 16 µg/mL (≈ 36.2 µM); with Staphylococcus aureus [5], 8 µg/mL (≈ 18.1 µM); with Pseudomonas aeruginosa, more than 32 µg/mL. Also, the MIC99 came to 16 µg/mL (≈ 36.2 µM) in data set [7], 16 µg/mL (≈ 36.2 µM) in the data set on Staphylococcus aureus [8] and 4 µg/mL (≈ 9.04 µM) in the data set with Staphylococcus aureus [9]. Besides, the solubility in data set [2] worked out at 0.047 mM (≈ 20.8 µg/mL). The molecule further gave a logP in data set [6] of 2.12.
With `CC(=O)NC[C@H]1CN(c2ccc(OC[C@H](O)CNc3ccc(C#N)cc3)c(F)c2)C(=O)O1`, the MIC99 is more than 32 µg/mL with Escherichia coli; 8 µg/mL (≈ 18.1 µM) in the data set with Staphylococcus aureus [1]; 16 µg/mL (≈ 36.2 µM) in the data set with Staphylococcus aureus [3]; 16 µg/mL (≈ 36.2 µM) with Staphylococcus aureus [4]; 16 µg/mL (≈ 36.2 µM) in the data set with Staphylococcus aureus [5]; more than 32 µg/mL in the data set on Pseudomonas aeruginosa. For the same molecule, the MIC99 is 32 µg/mL (≈ 72.3 µM) in [7], 16 µg/mL (≈ 36.2 µM) in the data set with Staphylococcus aureus [8] and 8 µg/mL (≈ 18.1 µM) with Staphylococcus aureus [9]. The solubility in data set [2] amounted to 0.069 mM (≈ 30.5 µg/mL). The molecule also yielded a logP in [6] of 1.29.
On to `CC(=O)NC[C@H]1CN(c2ccc(OC[C@@H](O)CNc3cc(C(F)(F)F)cc(C(F)(F)F)c3)c(F)c2)C(=O)O1`, for which the MIC99 with Escherichia coli was more than 32 µg/mL; in the data set on Staphylococcus aureus [1], 16 µg/mL (≈ 28.9 µM); in the data set with Staphylococcus aureus [3] it was 32 µg/mL (≈ 57.8 µM); in the data set on Staphylococcus aureus [4] it was 16 µg/mL (≈ 28.9 µM); in the data set with Staphylococcus aureus [5], 16 µg/mL (≈ 28.9 µM); with Pseudomonas aeruginosa, more than 32 µg/mL. Besides, the values for the MIC99 (in data set [7]; in the data set on Staphylococcus aureus [8]; in the data set on Staphylococcus aureus [9]) were 16 µg/mL (≈ 28.9 µM), 16 µg/mL (≈ 28.9 µM) and 8 µg/mL (≈ 14.5 µM), respectively. This molecule displayed a logP in data set [6] of 3.1.
Consider `CC(=O)NC[C@H]1CN(c2ccc(OC[C@H](O)CNc3cc(C(F)(F)F)cc(C(F)(F)F)c3)c(F)c2)C(=O)O1`, for which the MIC99 with Escherichia coli, in the data set on Staphylococcus aureus [1], in the data set with Staphylococcus aureus [3], with Staphylococcus aureus [4], in the data set with Staphylococcus aureus [5] and in the data set with Pseudomonas aeruginosa was more than 32 µg/mL in each case. In addition, the results for the MIC99 (in data set [7]; in the data set with Staphylococcus aureus [8]; in the data set on Staphylococcus aureus [9]) were more than 64 µg/mL, more than 32 µg/mL and 32 µg/mL (≈ 57.8 µM), respectively. In data set [2], this molecule gave a solubility of 0.022 mM (≈ 12.2 µg/mL). Also, the log partition coefficient (logP) in data set [6] is 3.01.
On to `CC(=O)NC[C@H]1CN(c2ccc(OC[C@@H](O)CNc3ccccn3)c(F)c2)C(=O)O1`, for which the MIC99 with Escherichia coli, with Staphylococcus aureus [1], in the data set with Staphylococcus aureus [3], in the data set with Staphylococcus aureus [4], in the data set on Staphylococcus aureus [5] and in the data set with Pseudomonas aeruginosa was more than 32 µg/mL each time. Besides, the MIC99 was more than 64 µg/mL in [7], more than 32 µg/mL in the data set on Staphylococcus aureus [8] and more than 32 µg/mL in the data set with Staphylococcus aureus [9]. This molecule showed a solubility in data set [2] of 22.2 mM (≈ 9290 µg/mL). This molecule had a logP in data set [6] of 1.37.
`CC(=O)NC[C@H]1CN(c2ccc(OC[C@H](O)CNc3ccccn3)c(F)c2)C(=O)O1`: the MIC99 in the data set on Escherichia coli, in the data set with Staphylococcus aureus [1], in the data set on Staphylococcus aureus [3], in the data set with Staphylococcus aureus [4], in the data set on Staphylococcus aureus [5] and in the data set with Pseudomonas aeruginosa was more than 32 µg/mL in each case. Besides, the MIC99 was more than 64 µg/mL in data set [7], more than 32 µg/mL with Staphylococcus aureus [8] and more than 32 µg/mL in the data set with Staphylococcus aureus [9]. Besides, in [2], the solubility turned out to be 35.1 mM (≈ 14700 µg/mL). In addition, the logP in data set [6] worked out at 1.6.
For the molecule `CC(=O)NC[C@H]1CN(c2ccc(OC[C@@H](O)CNc3cccnc3)c(F)c2)C(=O)O1`, the MIC99 in the data set with Escherichia coli, in the data set with Staphylococcus aureus [1], with Staphylococcus aureus [3], with Staphylococcus aureus [4], with Staphylococcus aureus [5] and in the data set on Pseudomonas aeruginosa was more than 32 µg/mL each time. Besides, the MIC99 in [7] is more than 64 µg/mL; in the data set with Staphylococcus aureus [8] it was more than 32 µg/mL; with Staphylococcus aureus [9] it was more than 32 µg/mL. In addition, the solubility in data set [2] worked out at 3.04 mM (≈ 1270 µg/mL). The molecule also came in with a logP in data set [6] of 0.02.
For the molecule `CC(=O)NC[C@H]1CN(c2ccc(OC[C@H](O)CNc3cccnc3)c(F)c2)C(=O)O1`, the MIC99 in the data set with Escherichia coli was more than 32 µg/mL; in the data set on Staphylococcus aureus [1] it was 32 µg/mL (≈ 76.5 µM); in the data set on Staphylococcus aureus [3], 32 µg/mL (≈ 76.5 µM); with Staphylococcus aureus [4] it was 32 µg/mL (≈ 76.5 µM); with Staphylococcus aureus [5] it was 32 µg/mL (≈ 76.5 µM); in the data set on Pseudomonas aeruginosa, more than 32 µg/mL. Moreover, the MIC99 in [7] is more than 64 µg/mL; in the data set with Staphylococcus aureus [8], 32 µg/mL (≈ 76.5 µM); in the data set on Staphylococcus aureus [9], 32 µg/mL (≈ 76.5 µM). Also, the solubility in data set [2] came to 10.1 mM (≈ 4240 µg/mL). Moreover, the lipophilicity (logP) in data set [6] was -0.18.
Regarding `CC(=O)NC[C@H]1CN(c2ccc(OC[C@@H](O)CNc3ccncc3)c(F)c2)C(=O)O1`, the MIC99 in the data set on Escherichia coli, with Staphylococcus aureus [1], with Staphylococcus aureus [3], in the data set with Staphylococcus aureus [4], in the data set with Staphylococcus aureus [5] and in the data set on Pseudomonas aeruginosa was more than 32 µg/mL throughout. Besides, the MIC99 in [7] was more than 64 µg/mL; in the data set with Staphylococcus aureus [8] it was more than 32 µg/mL; in the data set with Staphylococcus aureus [9] it was more than 32 µg/mL. This molecule came in with a solubility in [2] of 17.7 mM (≈ 7420 µg/mL). Further, the logP in [6] was -0.04.
For `NNC(=O)c1ccncc1` [ISONIAZID], in [10], the MIC stood at 0.0625 µg/mL (≈ 0.456 µM). Further, the MIC99 in [7] is 4 µg/mL (≈ 29.2 µM).
